In PMC5218480 (PLoS ONE, 2017):

System: MV-4-11 cells
Assay: Gene expression microarray analysis (Affymetrix PrimeView) and GSEA
Format: cell-based, human
Design: RFU PODN (11730768_x_at) / Fold change /veh PODN (11730768_x_at) / RFU LINC00158 (11744669_a_at) / Fold change /veh LINC00158 (11744669_a_at) / RFU DUSP10 (11751237_a_at) / Fold change /veh DUSP10 (11751237_a_at) / RFU ID3 (11757404_x_at) / Fold change /veh ID3 (11757404_x_at) / RFU PLEKHG5 (11737974_s_at) / Fold change /veh PLEKHG5 (11737974_s_at) / RFU LRRC4B (11730491_at) / Fold change /veh LRRC4B (11730491_at) / RFU GIMAP4 (11747438_a_at) / Fold change /veh GIMAP4 (11747438_a_at) / RFU KRT8 (11758183_x_at) / Fold change /veh KRT8 (11758183_x_at) / RFU CNN1 (11734310_a_at) / Fold change /veh CNN1 (11734310_a_at) / RFU VPS37D (11726825_at) / Fold change /veh VPS37D (11726825_at) / RFU C10orf10 (11716522_x_at) / Fold change /veh C10orf10 (11716522_x_at) / RFU KIR2DL2 /// KIR2DL4 /// KIR2DL5A /// KIR2DL5B /// KIR2DS1 /// KIR2DS2 /// KIR2DS3 /// KIR2DS4 /// KIR3DL3 /// KIR3DL3 /// KIR3DS1 (11738374_at) / Fold change /veh KIR2DL2 /// KIR2DL4 /// KIR2DL5A /// KIR2DL5B /// KIR2DS1 /// KIR2DS2 /// KIR2DS3 /// KIR2DS4 /// KIR3DL3 /// KIR3DL3 /// KIR3DS1 (11738374_at) / RFU C1QL1 (11718748_at) / Fold change /veh C1QL1 (11718748_at) / RFU TMPRSS4 (11747572_a_at) / Fold change /veh TMPRSS4 (11747572_a_at) / RFU HAMP (11756126_x_at) / Fold change /veh HAMP (11756126_x_at) / RFU RNFT2 (11725882_a_at) / Fold change /veh RNFT2 (11725882_a_at) / RFU NR4A2 (11747474_a_at) / Fold change /veh NR4A2 (11747474_a_at) / RFU ABCC12 (11746883_a_at) / Fold change /veh ABCC12 (11746883_a_at) / RFU TMEM136 (11760407_x_at) / Fold change /veh TMEM136 (11760407_x_at) / RFU CLDN22 /// WWC2 (11732394_at) / Fold change /veh CLDN22 /// WWC2 (11732394_at) / RFU HLA-DPB1 (11760878_x_at) / Fold change /veh HLA-DPB1 (11760878_x_at) / RFU SPINT1 (11716480_a_at) / Fold change /veh SPINT1 (11716480_a_at) / RFU GAP43 (11754022_s_at) / Fold change /veh GAP43 (11754022_s_at) / RFU A4GNT (11735810_at) / Fold change /veh A4GNT (11735810_at) / RFU PRB3 (11715151_x_at) / Fold change /veh PRB3 (11715151_x_at) / RFU TUBB4B (11761932_at) / Fold change /veh TUBB4B (11761932_at) / RFU CAPN14 (11732068_a_at) / Fold change /veh CAPN14 (11732068_a_at) / RFU TMCC2 (11721928_a_at) / Fold change /veh TMCC2 (11721928_a_at) / RFU IRGQ (11745062_a_at) / Fold change /veh IRGQ (11745062_a_at) / RFU FAM174B (11720279_a_at) / Fold change /veh FAM174B (11720279_a_at) / RFU TMPRSS4 (11748680_a_at) / Fold change /veh TMPRSS4 (11748680_a_at) / RFU FAM212B (11763350_a_at) / Fold change /veh FAM212B (11763350_a_at) / RFU PLEKHG5 (11743358_a_at) / Fold change /veh PLEKHG5 (11743358_a_at) / RFU ZSCAN30 (11745921_a_at) / Fold change /veh ZSCAN30 (11745921_a_at) / RFU CMKLR1 (11741424_a_at) / Fold change /veh CMKLR1 (11741424_a_at) / RFU LOC101060620 /// MAPK8IP1 (11723275_at) / Fold change /veh LOC101060620 /// MAPK8IP1 (11723275_at) / RFU SPTSSB (11747773_x_at) / Fold change /veh SPTSSB (11747773_x_at) / RFU PRSS12 (11739890_at) / Fold change /veh PRSS12 (11739890_at) / RFU BIN1 (11741810_x_at) / Fold change /veh BIN1 (11741810_x_at) / RFU WNT11 (11732464_a_at) / Fold change /veh WNT11 (11732464_a_at) / RFU C10orf10 (11716521_a_at) / Fold change /veh C10orf10 (11716521_a_at) / RFU C5orf56 (11738089_at) / Fold change /veh C5orf56 (11738089_at) / RFU CYB561 (11721691_x_at) / Fold change /veh CYB561 (11721691_x_at) / RFU ANKRD19P (11752326_a_at) / Fold change /veh ANKRD19P (11752326_a_at) / RFU OR2T12 /// OR2T33 /// OR2T8 (11738714_s_at) / Fold change /veh OR2T12 /// OR2T33 /// OR2T8 (11738714_s_at) / RFU VCAN (11748164_a_at) / Fold change /veh VCAN (11748164_a_at) / RFU JSRP1 (11732532_at) / Fold change /veh JSRP1 (11732532_at) / RFU KRTAP10-11 (11738290_x_at) / Fold change /veh KRTAP10-11 (11738290_x_at) / RFU MYO3A (11730013_a_at) / Fold change /veh MYO3A (11730013_a_at) / RFU EBF3 (11725865_a_at) / Fold change /veh EBF3 (11725865_a_at) / RFU CAMK2N1 (11719241_x_at) / Fold change /veh CAMK2N1 (11719241_x_at) / RFU C5orf56 (11738088_a_at) / Fold change /veh C5orf56 (11738088_a_at) / RFU OLFML3 (11715873_a_at) / Fold change /veh OLFML3 (11715873_a_at) / RFU LOC100653217 /// NTM (11731650_a_at) / Fold change /veh LOC100653217 /// NTM (11731650_a_at) / RFU MAPK11 (11762145_a_at) / Fold change /veh MAPK11 (11762145_a_at) / RFU FIZ1 (11724087_x_at) / Fold change /veh FIZ1 (11724087_x_at) / RFU OASL (11726364_x_at) / Fold change /veh OASL (11726364_x_at) / RFU SOX15 (11748057_x_at) / Fold change /veh SOX15 (11748057_x_at) / RFU CD79A (11719716_a_at) / Fold change /veh CD79A (11719716_a_at) / RFU HIST1H1D (11736915_at) / Fold change /veh HIST1H1D (11736915_at) / RFU CASKIN2 (11723855_a_at) / Fold change /veh CASKIN2 (11723855_a_at) / RFU LOC730098 (11760151_x_at) / Fold change /veh LOC730098 (11760151_x_at) / RFU OR4N2 (11742367_at) / Fold change /veh OR4N2 (11742367_at) / RFU PRRT2 (11749266_a_at) / Fold change /veh PRRT2 (11749266_a_at) / RFU SNX32 (11753110_a_at) / Fold change /veh SNX32 (11753110_a_at) / RFU CDHR5 (11726645_a_at) / Fold change /veh CDHR5 (11726645_a_at) / RFU RCAN1 (11760418_a_at) / Fold change /veh RCAN1 (11760418_a_at) / RFU FAM167A (11723789_a_at) / Fold change /veh FAM167A (11723789_a_at) / RFU FAM26E (11764081_at) / Fold change /veh FAM26E (11764081_at) / RFU ISYNA1 (11749810_s_at) / Fold change /veh ISYNA1 (11749810_s_at) / RFU ACY1 (11761880_at) / Fold change /veh ACY1 (11761880_at) / RFU 11764098_at / Fold change /veh 11764098_at / RFU SAMD14 (11745864_x_at) / Fold change /veh SAMD14 (11745864_x_at) / RFU NPB (11741838_a_at) / Fold change /veh NPB (11741838_a_at) / RFU TMPRSS6 (11731388_a_at) / Fold change /veh TMPRSS6 (11731388_a_at) / RFU KRTAP10-2 (11738614_at) / Fold change /veh KRTAP10-2 (11738614_at) / RFU ARHGAP8 /// PRR5-ARHGAP8 (11727945_x_at) / Fold change /veh ARHGAP8 /// PRR5-ARHGAP8 (11727945_x_at) / RFU KRTAP5-7 /// NADSYN1 (11734609_at) / Fold change /veh KRTAP5-7 /// NADSYN1 (11734609_at) / RFU RASL12 (11751679_a_at) / Fold change /veh RASL12 (11751679_a_at) / RFU CDKN2B (11736163_a_at) / Fold change /veh CDKN2B (11736163_a_at) / RFU PRF1 (11729649_at) / Fold change /veh PRF1 (11729649_at) / RFU, ZNF638 /// ZNF638-IT1 / Fold change vs veh, ZNF638 /// ZNF638-IT1 / RFU, PANK3 / Fold change vs veh, PANK3 / RFU, SH3YL1 / Fold change vs veh, SH3YL1 / RFU, ZEB2 / Fold change vs veh, ZEB2 / RFU, NRIP1 / Fold change vs veh, NRIP1 / RFU, PTTG1IP / Fold change vs veh, PTTG1IP / RFU, CAPN2 / Fold change vs veh, CAPN2 / RFU, MED14 / Fold change vs veh, MED14 / RFU, SNORA58 / Fold change vs veh, SNORA58 / RFU, C1orf63 / Fold change vs veh, C1orf63 / RFU, LRRFIP1 / Fold change vs veh, LRRFIP1 / RFU, NDUFAF7 / Fold change vs veh, NDUFAF7 / RFU, SLC12A2 / Fold change vs veh, SLC12A2 / RFU, IBTK / Fold change vs veh, IBTK / RFU, ESF1 / Fold change vs veh, ESF1 / Fold change vs veh, TMEM50B / RFU, TAOK1 / Fold change vs veh, TAOK1 / RFU, ACBD3 / Fold change vs veh, ACBD3 / RFU, TMA16 / Fold change vs veh, TMA16 / RFU, RWDD3 / Fold change vs veh, RWDD3 / RFU, BCAT1 / Fold change vs veh, BCAT1 / RFU, EDEM3 / Fold change vs veh, EDEM3 / RFU, TMEM33 / Fold change vs veh, TMEM33 / RFU, WDR75 / Fold change vs veh, WDR75 / RFU, AHCTF1 / Fold change vs veh, AHCTF1 / RFU, TFRC / Fold change vs veh, TFRC / RFU, ZDHHC17 / Fold change vs veh, ZDHHC17 / RFU, NOM1 / Fold change vs veh, NOM1 / RFU, ARL8B / Fold change vs veh, ARL8B / RFU, ZBTB11 / Fold change vs veh, ZBTB11 / RFU, TAMM41 / Fold change vs veh, TAMM41 / RFU, KIAA1704 /// LOC100996395 / Fold change vs veh, KIAA1704 /// LOC100996395 / RFU, ING1 / Fold change vs veh, ING1 / RFU, TRMT61B / Fold change vs veh, TRMT61B / RFU, FUBP3 / Fold change vs veh, FUBP3 / RFU, TP53 / Fold change vs veh, TP53 / RFU, TNKS2 / Fold change vs veh, TNKS2 / RFU, ZFP14 / Fold change vs veh, ZFP14 / RFU, ACTR2 / Fold change vs veh, ACTR2 / RFU, PPP3R1 / Fold change vs veh, PPP3R1 / RFU, PIK3R1 / Fold change vs veh, PIK3R1 / RFU, HNRNPA1 / Fold change vs veh, HNRNPA1 / RFU, RNF170 / Fold change vs veh, RNF170 / RFU, ZNF28 / Fold change vs veh, ZNF28 / RFU, RNGTT / Fold change vs veh, RNGTT / RFU, OGT / Fold change vs veh, OGT / RFU, BRD1 / Fold change vs veh, BRD1 / RFU, MARS / Fold change vs veh, MARS / RFU, ZNF655 / Fold change vs veh, ZNF655 / RFU, FAHD1 / Fold change vs veh, FAHD1 / RFU, BDP1 / Fold change vs veh, BDP1 / RFU, LRRCC1 / Fold change vs veh, LRRCC1 / RFU, ARID1A / Fold change vs veh, ARID1A / RFU, ZNF146 / Fold change vs veh, ZNF146 / RFU, ZNF330 / Fold change vs veh, ZNF330 / RFU, GPN3 / Fold change vs veh, GPN3 / RFU, C9orf123 / Fold change vs veh, C9orf123 / RFU, N4BP2L2 / Fold change vs veh, N4BP2L2 / RFU, ARFIP1 / Fold change vs veh, ARFIP1 / RFU, FAM179B / Fold change vs veh, FAM179B / RFU, BCL10 / Fold change vs veh, BCL10 / RFU, UHRF1BP1L / Fold change vs veh, UHRF1BP1L / RFU, BET1 / Fold change vs veh, BET1 / RFU, CNOT2 / Fold change vs veh, CNOT2 / RFU, ZNF268 / Fold change vs veh, ZNF268 / Fold change vs veh, ZNF507 / RFU, DGCR2 / Fold change vs veh, DGCR2 / RFU, WDSUB1 / Fold change vs veh, WDSUB1 / Fold change vs veh, HSP90B1 /// MIR3652 / RFU, ADSS / Fold change vs veh, ADSS / RFU, GK / Fold change vs veh, GK / RFU, ZNF148 / Fold change vs veh, ZNF148 / RFU, TAF9 / Fold change vs veh, TAF9 / RFU, SLC1A5 / Fold change vs veh, SLC1A5 / RFU, SLMO2 / Fold change vs veh, SLMO2 / RFU, ABCC4 / Fold change vs veh, ABCC4 / RFU, LOC101060439 /// RAP1B / Fold change vs veh, LOC101060439 /// RAP1B / RFU, RFX7 / Fold change vs veh, RFX7 / RFU, GTPBP10 / Fold change vs veh, GTPBP10 / RFU, CNEP1R1 / Fold change vs veh, CNEP1R1 / RFU, BIVM-ERCC5 /// ERCC5 / Fold change vs veh, BIVM-ERCC5 /// ERCC5 / RFU, ILF3 / Fold change vs veh, ILF3 / RFU 11762660_at / Fold change /veh 11762660_at / RFU VCAN (11757783_s_at) / Fold change /veh VCAN (11757783_s_at) / RFU DDX43 (11728927_at) / Fold change /veh DDX43 (11728927_at) / RFU KRT8 (11758188_x_at) / Fold change /veh KRT8 (11758188_x_at) / RFU NKD1 (11759106_at) / Fold change /veh NKD1 (11759106_at) / RFU SRD5A1 (11742802_a_at) / Fold change /veh SRD5A1 (11742802_a_at) / RFU TPSAB1 /// TPSB2 (11721975_s_at) / Fold change /veh TPSAB1 /// TPSB2 (11721975_s_at) / RFU GSTM3 (11746129_a_at) / Fold change /veh GSTM3 (11746129_a_at) / RFU IL23R (11737362_x_at) / Fold change /veh IL23R (11737362_x_at) / RFU TMEM51 (11727254_a_at) / Fold change /veh TMEM51 (11727254_a_at) / RFU PIWIL2 (11732686_x_at) / Fold change /veh PIWIL2 (11732686_x_at) / RFU ORM1 (11744905_x_at) / Fold change /veh ORM1 (11744905_x_at) / RFU CCDC152 (11743942_at) / Fold change /veh CCDC152 (11743942_at) / RFU ECM1 (11717891_a_at) / Fold change /veh ECM1 (11717891_a_at) / RFU IL23R (11748794_a_at) / Fold change /veh IL23R (11748794_a_at) / RFU TNFAIP8L3 (11732012_x_at) / Fold change /veh TNFAIP8L3 (11732012_x_at) / RFU MBOAT4 (11741988_at) / Fold change /veh MBOAT4 (11741988_at) / RFU 11764193_at / Fold change /veh 11764193_at / RFU TMEM53 (11763286_at) / Fold change /veh TMEM53 (11763286_at) / RFU MAGEB2 (11727129_at) / Fold change /veh MAGEB2 (11727129_at) / RFU TMEM200A (11744735_a_at) / Fold change /veh TMEM200A (11744735_a_at) / RFU CCDC152 (11751479_a_at) / Fold change /veh CCDC152 (11751479_a_at) / RFU FAM211A (11726209_a_at) / Fold change /veh FAM211A (11726209_a_at) / RFU RGS16 (11746705_a_at) / Fold change /veh RGS16 (11746705_a_at) / RFU VCAN (11755009_s_at) / Fold change /veh VCAN (11755009_s_at) / RFU RHOB (11743442_s_at) / Fold change /veh RHOB (11743442_s_at) / RFU RGS16 (11720943_a_at) / Fold change /veh RGS16 (11720943_a_at) / RFU RGS16 (11720944_at) / Fold change /veh RGS16 (11720944_at) / RFU, VPS4B / Fold change vs veh, VPS4B / RFU, CREB1 / Fold change vs veh, CREB1 / RFU, DNAJC13 / Fold change vs veh, DNAJC13 / RFU, GNAQ / Fold change vs veh, GNAQ / RFU, CDK5R1 / Fold change vs veh, CDK5R1 / RFU, ZRANB3 / Fold change vs veh, ZRANB3 / RFU, CUL4A / Fold change vs veh, CUL4A / RFU, CCNY / Fold change vs veh, CCNY / RFU, UFL1 / Fold change vs veh, UFL1 / RFU, COG3 / Fold change vs veh, COG3 / RFU, DIAPH2 / Fold change vs veh, DIAPH2 / RFU, SKA2 / Fold change vs veh, SKA2 / RFU, AFF3 / Fold change vs veh, AFF3 / RFU, LMF1 / Fold change vs veh, LMF1 / RFU, IPO11 / Fold change vs veh, IPO11 / RFU, DFFB / Fold change vs veh, DFFB / RFU, FOXP1 / Fold change vs veh, FOXP1 / RFU, CARD8 / Fold change vs veh, CARD8 / RFU, STRN3 / Fold change vs veh, STRN3 / RFU, ADK / Fold change vs veh, ADK / RFU, RASSF2 / Fold change vs veh, RASSF2 / RFU, WIPF1 / Fold change vs veh, WIPF1 / RFU, LARP1B / Fold change vs veh, LARP1B / RFU, RASA1 / Fold change vs veh, RASA1 / RFU, RB1 / Fold change vs veh, RB1 / RFU, PPFIA1 / Fold change vs veh, PPFIA1 / RFU, MAT2A / Fold change vs veh, MAT2A / RFU, CCT5 / Fold change vs veh, CCT5 / RFU, WDR92 / Fold change vs veh, WDR92 / RFU, CUX1 / Fold change vs veh, CUX1 / RFU, TTC7A / Fold change vs veh, TTC7A / RFU, TMEM135 / Fold change vs veh, TMEM135 / RFU, DEPTOR / Fold change vs veh, DEPTOR / RFU, CPM / Fold change vs veh, CPM / RFU, DNAJB6 / Fold change vs veh, DNAJB6 / RFU, CACNA2D3 / Fold change vs veh, CACNA2D3 / RFU, DTX4 / Fold change vs veh, DTX4 / RFU, TFCP2 / Fold change vs veh, TFCP2 / RFU, GMCL1 /// GMCL1P1 / Fold change vs veh, GMCL1 /// GMCL1P1 / RFU, AEBP2 / Fold change vs veh, AEBP2 / RFU, SNHG1 /// SNORD22 /// SNORD25 /// SNORD26 /// SNORD27 /// SNORD28 /// SNORD29 /// SNORD31 / Fold change vs veh, SNHG1 /// SNORD22 /// SNORD25 /// SNORD26 /// SNORD27 /// SNORD28 /// SNORD29 /// SNORD31 / Fold change (Aza/veh), C12orf56 (ProbeSet 11735607_a_at) / Fold change (ACY-1035/veh), C12orf56 (ProbeSet 11735607_a_at) / Fold change (Aza/veh), FGFR1OP (ProbeSet 11751329_s_at) / Fold change (ACY-1035/veh), FGFR1OP (ProbeSet 11751329_s_at) / Fold change (Aza/veh), VPS36 (ProbeSet 11739960_a_at) / Fold change (ACY-1035/veh), VPS36 (ProbeSet 11739960_a_at) / RFU SYPL1 (11715823_x_at) / Fold change /veh SYPL1 (11715823_x_at) / RFU IGFBP7 (11715501_s_at) / Fold change /veh IGFBP7 (11715501_s_at) / RFU REEP3 (11722064_at) / Fold change /veh REEP3 (11722064_at) / RFU IGLL1 (11728026_x_at) / Fold change /veh IGLL1 (11728026_x_at): dose or concentration left out as unconfirmed
Details: ProbeSet 11759095_at; LIST D

## Nc1ccc(-c2cccs2)cc1NC(=O)c1ccc2c(c1)cc(C1CC1)n2CCN1CCOCC1 [ACY-1035]
  Fold change vs veh, GNAQ: 0.95
